Source: patent publication US10206955B2, “Compositions of ascorbic acid and bone morphogenetic protein 4 (BMP-4) for cell growth and uses related thereo” (EMORY UNIVERSITY, priority 2014, dated 2019)

Experiments:
aMHC-GFP-MTTFs = experiment: Quantification of GFP+ cells in aMHC-GFP reporter MTTFs; assay type: cell-based, mouse; details: for GFP expression (aMHC-GFP): agent alone
Method: (§1) To enhance the reprogramming potential of miRNAs, AA and BMP4 were added one day after miR-transfection (FIG. 1A). Between 4-6 days, spontaneously contracting cells appeared in groups treated with […], miR-208b-3p, or miR-499-5p, but not with miR-208a-3p and miR-208b-5p or all miRNA. The latter groups were excluded from further experiments. To further confirm the results, MTTFs were isolated from aMHC-GFP reporter mice (aMHC-GFP-MTTFs) and quantified GFP+ cells after treating with […], miR-208b-3p, or miR-499-5p in combination with AA and BMP4. […] TNNT2+ cells occupied 1.8±0.6% of MTTFs treated with miR-208b-3p, AA and BMP4 by flow cytometry analyses. This reprogramming rate is smaller than the number of aMHC-GFP+ cells because TNNT2 is a more specific and mature marker for CMs.
(§2) Mouse tail-tip fibroblasts (MTTFs) isolated from 1-4 month old transgenic mice carrying a GFP reporter driven by αMHC or human ubiquitin C (UBC) promoters were cultured in DMEM/F-12 (Invitrogen) containing 10% FBS (Atlanta Biologicals), 1% Glutamax (Invitrogen), 1% non-essential amino acids (Invitrogen) and 1% Antibiotic-Antimycotic (Invitrogen). αMHC-GFP transgenic mice were kindly given by Dr. Mark Sussman (San Diego State University) and UBC-GFP mice (C57BL/6-Tg(UBC-GFP)30Scha/J) were purchased from the Jackson Laboratory. After 3-5 passages, MTTFs were frozen until use. […]

[1] = test system: mouse tail-tip fibroblasts (MTTFs); experiment: Spontaneous contraction of miRNA-transfected MTTFs after adding AA and BMP4; assay type: cell-based; details: AA and BMP4 added one day after miR-transfection; between 4-6 days
Method: as §1
(§3) Mouse tail-tip fibroblasts (MTTFs) isolated from 1-4 month old transgenic mice carrying a GFP reporter driven by αMHC or human ubiquitin C (UBC) promoters were cultured in DMEM/F-12 (Invitrogen) containing 10% FBS (Atlanta Biologicals), 1% Glutamax (Invitrogen), 1% non-essential amino acids (Invitrogen) and 1% Antibiotic-Antimycotic (Invitrogen). αMHC-GFP transgenic mice were kindly given by Dr. Mark Sussman (San Diego State University) and UBC-GFP mice (C57BL/6-Tg(UBC-GFP)30Scha/J) were purchased from the Jackson Laboratory. After 3-5 passages, MTTFs were frozen until use. MTTFs at 70-80% of confluence were transfected with a synthetic miRNA mimic (20 nM), miR-1a-2-5p (Qiagen, MSY0017047, 5′-[…]-3′)(SEQ ID NO: 135), miR-208a-3p (Qiagen, MSY0000520, 5′-[…]-3′)(SEQ ID NO: 136), miR-208b-3p (Qiagen, MSY0004939, 5′-[…]-3′)(SEQ ID NO: 1), miR-208b-5p (Qiagen, MSY0017280, 5′-[…]-3′)(SEQ ID NO: 137), miR-499-5p (Qiagen, MSY0003482, 5′-[…]-3′) (SEQ ID NO: 3) or Scramble-miR (Dharmacon, CN-001000-01-05) using Lipofectamine 2000 (Invitrogen), and cultured in advanced DMEM/F12 (Invitrogen) containing 5% FBS (Atlanta Biologicals), 0.5% Glutamax (Invitrogen), 0.5% non-essential amino acids and 1% Antibiotic-Antimycotic (Invitrogen) with or without AA (ascorbic acid, Sigma, 0.2 mM) and BMP4 (R&D Systems, 10 ng/ml) for fibroblast reprogramming. Cells on a culture dish spontaneously aggregated as a patch-like CMT on day 10. In the case of no spontaneous formation, the border of a culture dish was scratched and cells were lifted up with a pipette to expedite cell aggregation into a CMT.

Myh6 = experiment: mRNA expression of Myh6 (aMHC) in treated MTTFs; assay type: cell-based, mouse; details: miRNA with AA and BMP4
Method: as §1, §2

[2] = test system: mouse tail-tip fibroblasts (MTTFs); experiment: Reprogramming of MTTFs with miRNA mimics alone: CM gene expression, ACTN2 immunocytochemistry; assay type: cell-based; details: miRNA mimic alone, without AA and BMP4
Description: The reprogramming potential of muscle-specific miRNA mimics, miR-1a-2-5p, miR-208a-3p, miR-208b-3p, miR-208b-5p, and miR-499-5p was investigated in mouse tail-tip fibroblasts (MTTFs). […] Immunocytochemistry confirmed expression of a CM marker sarcomeric α-actinin (ACTN2) in single miRNA transfected cells. However ACTN2 expression was diffuse, sarcomeric organization was poor and spontaneously contracting cells were not observed in any miRNA transfected MTTFs.
as §2

[3] = test system: mouse tail-tip fibroblasts (MTTFs); experiment: qRT-PCR of lineage markers at day 6 (vascular-lineage reprogramming); assay type: cell-based; details: protocol with AA and BMP4
Method: as §3, with “Cells on a culture dish spontaneously aggregated as a patch-like CMT on day 10. In the case of no spontaneous formation, the border of a culture dish was scratched and cells were lifted up with a pipette to expedite cell aggregation into a CMT.” left out

Molecule: O=C1O[C@H]([C@@H](O)CO)C(O)=C1O [AA, (R)-5-((S)-1,2-dihydroxyethyl)-3,4-dihydroxyfuran-2(5H)-one, reference compound]
- GFP expression (aMHC-GFP) (aMHC-GFP-MTTFs): did not induce GFP expression

Molecule: miR-1a-2-5p: synthetic miRNA mimic, Qiagen MSY0017047, 5′-ACAUACUUCUUUAUGUAGUACCCAUA-3′ (SEQ ID NO: 135) (chemistry not given here)
- spontaneously contracting cells [1]: appeared
- mRNA expression of Myh6 (Myh6): increased trend

Molecule: miR-208a-3p: synthetic miRNA mimic, Qiagen MSY0000520, 5′-AUAAGACGAGCAAAAAGCUUGU-3′ (SEQ ID NO: 136) (chemistry not given here)
- spontaneously contracting cells [1]: not

Molecule: miR-208b-3p: synthetic miRNA mimic, Qiagen MSY0004939, 5′-AUAAGACGAACAAAAGGUUUGU-3′ (SEQ ID NO: 1) (listed as RNA, chemistry not given here; listed as Mus musculus)
- expression of CM genes Mef2c, Nkx2-5, Gata4 and Myh6 [2]: most effective
- spontaneously contracting cells [1]: appeared
- GFP expression (aMHC-GFP-positive cells) of MTTFs (aMHC-GFP-MTTFs; miRNA in combination with AA and BMP4): 22.0±2.6%
- mRNA expression of Myh6 (Myh6): significantly increased
- expression of EC and SMC genes (qRT-PCR) [3]: increased expression

Molecule: miR-208b-5p: synthetic miRNA mimic, Qiagen MSY0017280, 5′-AAGCUUUUUGCUCGCGUUAUGU-3′ (SEQ ID NO: 137) (chemistry not given here)
- spontaneously contracting cells [1]: not

Molecule: miR-499-5p: synthetic miRNA mimic, Qiagen MSY0003482, 5′-UUAAGACUUGCAGUGAUGUUU-3′ (SEQ ID NO: 3) (listed as RNA, chemistry not given here; listed as Mus musculus)
- spontaneously contracting cells [1]: appeared

B1: BMP4: secreted disulfide-linked homodimeric BMP-4, a TGF-beta superfamily ligand (R&D Systems) (protein, listed as Homo sapiens)
chain: SPKHHPQRSRKKNKNCRRHSLYVDFSDVGWNDWIVAPPGYQAFYCHGDCPFPLADHLNSTNHAIVQTLVNSVNSSIPKACCVPTELSAISMLYLDEYDKVVLKNYQEMVVEGCGCR
modifications: homodimer
- GFP expression (aMHC-GFP) (aMHC-GFP-MTTFs): did not induce GFP expression
